Measurements reported in PubChem BioAssay (NCI).
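Five compound concentrations were applied to cells in 96-well plates for 48 hours; endpoints were derived by simple linear interpolation of the resulting dose-response curve. TGI: total growth inhibition.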

How the values were obtained:
Test in all cases: NCI-60 cell line screen, 48 h
[1] = test system: 786-0 renal
[2] = test system: A549 NSCLC
[3] = test system: HCT-15 colon
[4] = test system: IGROV1 ovarian
[5] = test system: MALME-3M melanoma
[6] = test system: MDA-MB-231 breast
[7] = test system: OVCAR-4 ovarian
[8] = test system: OVCAR-5 ovarian
[9] = test system: SNB-75 CNS
[10] = test system: UACC-257 melanoma

| Compound | TGI [1] | TGI [2] | TGI [3] | TGI [4] | TGI [5] | TGI [6] | TGI [7] | TGI [8] | TGI [9] | TGI [10] |
| --- | --- | --- | --- | --- | --- | --- | --- | --- | --- | --- |
| Cc1ccc(N=Nc2c(O)c3ccccc3[nH]c2=O)c(S(=O)(=O)N(C)C)c1 | > 100 µM | > 100 µM | > 100 µM | > 100 µM | > 100 µM | > 100 µM | > 100 µM | > 100 µM | > 100 µM | > 100 µM |
| N/C(CC/C(N)=N\O)=N\O | > 100 µM | > 100 µM | > 100 µM | > 100 µM | > 100 µM | > 100 µM | > 100 µM | > 100 µM | > 100 µM | > 100 µM |
| COc1ccc(-n2c(CCCC(=O)O)nc3c2C(=O)c2ccccc2C3=O)cc1 | > 100 µM | > 100 µM | > 100 µM | > 100 µM | 59.7 µM | > 100 µM | > 100 µM | > 100 µM | > 100 µM | > 100 µM |
| COC1/C=C\C=C(/C)C(=O)NC2=CC(=O)C(NCCCl)=C(CC(C)CC(OC)C(O)C(C)/C=C(/C)C1OC(N)=O)C2=O (centres undefined) | 9.05 µM | 14.3 µM | 2.77 µM | 13.6 µM | 1.48 µM | 20.4 µM | 15 µM | 11.7 µM | 3.81 µM | 0.911 µM |
| CCOC(=O)c1cc2cc(Cc3ccc4[nH]c(C(=O)OCC)cc4c3)ccc2[nH]1 | 13 µM | – | > 100 µM | 35.7 µM | > 100 µM | 37.9 µM | 21.4 µM | > 100 µM | 27.9 µM | > 100 µM |
| CC12CC3c4ccccc4CN1C3(c1ccccc1)OC2=O (centres undefined) | > 100 µM | > 100 µM | > 100 µM | > 100 µM | > 100 µM | > 100 µM | > 100 µM | > 100 µM | > 100 µM | > 100 µM |
| CN(C)CC1CCC/C(=C\c2ccc(N(C)C)cc2)C1=O (centres undefined) | 10.8 µM | 32.1 µM | 16.1 µM | 11.8 µM | 24.5 µM | 15.7 µM | 4.4 µM | 26.9 µM | 30.7 µM | 26.3 µM |
| O=[N+]([O-])/C(C(Cl)=C(Cl)Cl)=C1\Nc2ccccc2O1 | 32.1 µM | > 100 µM | > 100 µM | > 100 µM | > 100 µM | > 100 µM | > 100 µM | > 100 µM | 64.8 µM | > 100 µM |
| N#Cc1c(-c2ccco2)c2c(n(C3OC(CO)C(O)C(O)C3O)c1=S)CCCC2 (centres undefined) | > 100 µM | > 100 µM | > 100 µM | > 100 µM | > 100 µM | > 100 µM | > 100 µM | > 100 µM | 0.0981 µM | > 100 µM |
| C=C(NC(=O)C(=C)NC(=O)c1csc(C2=NC3c4csc(n4)C4NC(=O)c5csc(n5)C(C(C)(O)C(C)O)NC(=O)C5CSC(=N5)/C(=C/C)NC(=O)C(C(C)O)NC(=O)c5csc(n5)C3(CC2)NC(=O)C(C)NC(=O)C(=C)NC(=O)C(=C)NC(=O)C(C(C)C)NC2C=Cc3c(C(C)O)cc(nc3C2O)C(=O)OC4C)n1)C(N)=O (centres undefined) | 11.3 µM | > 48.5 µM | > 63.4 µM | 58.9 µM | 0.786 µM | > 100 µM | > 83.5 µM | 28.2 µM | > 100 µM | 18.7 µM |
| Cc1c2c(n3c(nc4ccccc43)c1C#N)N(c1ccc(Cl)cc1)CC2 | > 100 µM | > 100 µM | > 100 µM | > 100 µM | > 100 µM | > 100 µM | > 100 µM | > 100 µM | > 100 µM | > 100 µM |
| NCCC1(N)CCNCC1 | > 100 µM | > 100 µM | > 100 µM | > 100 µM | > 100 µM | > 100 µM | > 100 µM | > 100 µM | > 100 µM | > 100 µM |
| COc1ccc(C2SCC(=O)N2N=C2NC(=O)CC(=O)N2)cc1 (centres undefined) | > 100 µM | > 100 µM | > 100 µM | > 100 µM | > 100 µM | > 100 µM | > 100 µM | > 100 µM | > 100 µM | > 100 µM |
| NC1=CN(CCCO)C2=N/C(=C\c3ccco3)C(=O)N12 | > 100 µM | > 100 µM | > 100 µM | > 100 µM | > 100 µM | > 100 µM | > 100 µM | > 100 µM | > 100 µM | > 100 µM |
| CSc1n[nH]c(N)c1C(=O)Nc1ccc(Cl)cc1 | > 100 µM | > 100 µM | > 100 µM | > 100 µM | > 100 µM | > 100 µM | > 100 µM | > 100 µM | > 100 µM | > 100 µM |
| CCOC(=O)c1nc2c3c(ncn2n1)Oc1c(c(-c2ccccc2)nn1-c1ccccc1)C3c1ccc(OC)c(OC)c1 (centres undefined) | > 100 µM | > 100 µM | > 100 µM | > 100 µM | > 100 µM | > 100 µM | 30.4 µM | > 100 µM | 66.6 µM | > 100 µM |
